Some results are limits rather than exact numbers.

Sequence of RAF proto-oncogene serine/threonine-protein kinase [Y340E,Y341E] (P04049 whole entry Y340E/Y341E, the tested form may be a part): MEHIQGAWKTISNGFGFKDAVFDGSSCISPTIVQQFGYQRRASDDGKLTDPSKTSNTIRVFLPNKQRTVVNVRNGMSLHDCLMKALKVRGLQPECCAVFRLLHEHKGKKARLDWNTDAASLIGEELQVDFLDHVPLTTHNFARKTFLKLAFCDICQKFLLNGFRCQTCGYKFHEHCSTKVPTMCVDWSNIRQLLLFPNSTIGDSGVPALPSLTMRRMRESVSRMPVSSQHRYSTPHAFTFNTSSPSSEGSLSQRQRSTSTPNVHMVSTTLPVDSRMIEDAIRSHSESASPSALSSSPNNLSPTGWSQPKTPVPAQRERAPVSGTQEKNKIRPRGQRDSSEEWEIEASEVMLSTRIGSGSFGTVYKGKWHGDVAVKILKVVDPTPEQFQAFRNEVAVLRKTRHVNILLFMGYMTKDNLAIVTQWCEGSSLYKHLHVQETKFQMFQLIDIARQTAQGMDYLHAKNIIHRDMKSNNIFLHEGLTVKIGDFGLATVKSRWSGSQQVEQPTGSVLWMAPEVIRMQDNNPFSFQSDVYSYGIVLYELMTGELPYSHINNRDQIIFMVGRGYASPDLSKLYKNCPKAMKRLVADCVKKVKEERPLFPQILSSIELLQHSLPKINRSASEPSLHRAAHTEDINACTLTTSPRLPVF

This assay has as its target RAF proto-oncogene serine/threonine-protein kinase [Y340E,Y341E] (Human, UniProt P04049, Y340E/Y341E). Description: Biological Assays. An excerpt: The activity of a compound according to the present invention can be assessed by well-known in vitro & in vivo methods. […] CRAF cDNA was subcloned as full length protein, with Y340E and Y341E activating mutations, into a baculovirus expression vector for Sf9 insect cell expression. h14-3-3 zeta cDNA was subcloned into a baculovirus expression vector for SF9 insect cell expression. Sf9 cells co-expressing both proteins were lysed and subjected to immobilized nickel chromatography and eluted with Imidazole. A second column (StrepII binding column) was used and eluted with desthiobiotin. Protein Tags were removed using Prescission enzyme and the protein was further purified using a flowthrough step to remove tags.C-Raf TR refers to a truncated C-Raf protein, a Δ1-324 deletion mutant. C-Raf FL refers to the full-length C-Raf protein.Full length MEK1 with an inactivating K97R ATP binding site mutation is utilized as a RAF substrate. The MEK1 cDNA was subcloned with an N-terminal (his)6 tag into a vector for E. Coli expression. The MEK1 substrate was purified from E. Coli lysate by nickel affinity chromatography followed by anion exchange. The final MEK1 preparation was biotinylated (Pierce EZ-Link Sulfo-NHS-LC-Biotin) and concentrated.Assay Materials: Assay buffer is 50 mM Tris, pH 7.5, 15 mM MgCl2, 0.01% Bovine Serum Albumin (BSA) and 1 mM dithiothreitol (DTT); Stop buffer is 60 mM ethylenediaminetetraacetic acid (EDTA) and 0.01% Tween 20; b-Raf (V600E), active; biotinylated Mek, kinase dead; Alpha Screen detection kit (available from PerkinElmer , #6760617R); Anti phospho-MEK1/2 (available from Cell Signaling Technology, Inc. #9121); 384 well low volume assay plates (White Greiner plates).Assay conditions: b-Raf (V600E) approximately 4 pM; c-Raf approximately 4 nM; biotinylated Mek, kinase dead approximately 10 nM; ATP 10 μM for BRAF (V600E) and 1 μM for CRAF; Pre-incubation time with compounds 60 minutes at room temperature; Reaction time 1 or 3 hours at room temperature.Assay protocol: Raf and biotinylated Mek (kinase dead) were combined at 2× final concentrations in assay buffer (50 mM Tris, pH 7.5, 15 mM MgCl2, 0.01% BSA and 1 mM DTT) and dispensed […] per well in assay plates (Greiner white 384 well assay plates #781207) containing […] of 40× of a Raf kinase inhibitor test compound diluted in 100% DMSO. The plate was incubated for 60 minutes at room temperature. The Raf kinase activity reaction was started by the addition of […] per well of 2×ATP diluted in assay buffer. After 3 hours (b-Raf(V600E)) or 1 hour (c-Raf). The reactions were stopped and the phosphorylated product was measured using a rabbit anti-p-MEK (Cell Signaling, #9121) antibody and the Alpha Screen IgG (ProteinA) detection Kit (PerkinElmer #6760617R), by the addition of […] to the well of a mixture of the antibody (1:2000 dilution) and detection beads (1:2000 dilution of both beads) in Stop/bead buffer (25 mM EDTA, 50 mM Tris, pH 7.5, 0.01% Tween20). The additions were carried out under dark conditions to protect the detection beads from light. A lid was placed on top of the plate and incubated for 1 hour at room temperature, after which the luminescence was read on a PerkinElmer Envision instrument.
For `Cc1ccc(NC(=O)c2ccnc(C(F)(F)F)c2)cc1-c1cnc2c(c1)N1CCOCC1C1(COC1)C2` (racemic) [US10377770, Example 153], the IC50 stood at 0.005 nM.

Turning to `CCN1C(=O)[C@@H]2COCCN2c2cc(-c3cc(NC(=O)c4ccnc(C(F)(F)F)c4)ccc3C)nnc21` [US10377770, Example 133], half-maximal inhibition (IC50) was put at 0.011 nM.

Regarding `CCN1C(=O)[C@H]2COCCN2c2cc(-c3cc(NC(=O)c4ccnc(C(F)(F)F)c4)ccc3C)nnc21` [US10377770, Example 134], half-maximal inhibition (IC50) was put at 0.016 nM.

Turning to `CCN1C(=O)[C@@H]2COCC[C@H]2c2cc(-c3cc(NC(=O)c4cnnc(C(F)(F)F)c4)ccc3C)cnc21` [US10377770, Example 257], the IC50 is less than 0.1 nM.

The compound `Cc1ccc(NC(=O)c2ccnc(C(F)(F)F)c2)cc1-c1cnc2c(c1)[C@@H]1CCOC[C@H]1C(=O)N2CCO` [US10377770, Example 258] returned an IC50 of less than 0.1 nM.

In turn, `Cc1ccc(NC(=O)c2ccnc(C(C)(F)F)c2)cc1-c1cnc2c(c1)[C@@H]1CCOC[C@H]1C(=O)N2CCO` [US10377770, Example 267] returned an IC50 of less than 0.1 nM.

`Cc1ccc(NC(=O)c2ccnc(C(F)(F)F)c2)cc1-c1cnc2c(c1)C1CCOCCC1C(=O)N2CCO` (centres undefined) [US10377770, Example 284] had an IC50 of less than 0.1 nM.

`Cc1ccc(NC(=O)c2ccnc(C(C)(F)F)c2)cc1-c1cnc2c(c1)C1CCOCCC1C(=O)N2CCO` (centres undefined) [US10377770, Example 286]: the IC50 is less than 0.1 nM.

`CCN1C(=O)OC2COCCC2c2cc(-c3cc(NC(=O)c4ccnc(C(F)(F)F)c4)ccc3C)cnc21` (centres undefined) [US10377770, Example 297] came in with an IC50 of 0.9 nM.

On to `CCN1C(=O)OC2COCCC2c2cc(-c3cc(NC(=O)c4cnnc(C(F)(F)F)c4)ccc3C)cnc21` (centres undefined) [US10377770, Example 301], for which the IC50 is less than 0.1 nM.

Take `Cc1ccc(NC(=O)c2ccnc(C(F)(F)F)c2)cc1-c1cnc2c(c1)N1CCOC[C@H]1CC(=O)N2CCO` [US10377770, Example 333]: the IC50 was less than 0.1 nM.

Compound `Cc1ccc(NC(=O)c2ccnc(C(F)(F)F)n2)cc1-c1ccc2c(c1)N1CCOC[C@H]1[C@](F)(CO)C2` [US10377770, Example 388] came in with an IC50 of 0.4 nM.

In turn, `Cc1ccc(NC(=O)c2cccc(C(F)(F)F)n2)cc1-c1ccc2c(c1)N1CCOC[C@H]1[C@](F)(CO)C2` [US10377770, Example 389] displayed an IC50 of 0.5 nM.

For the compound `Cc1ccc(NC(=O)c2ccnc(C(F)(F)F)c2)cc1-c1ccc2c(c1)N1CCOC[C@@H]1[C@@](CO)(CF)C2` [US10377770, Example 405], the IC50 was 0.2 nM.

As usually defined, the IC50 is the point on the concentration scale where inhibition reaches its midpoint. Read a low IC50 as greater potency in that assay.

Source of the values: BindingDB's records for patent US10377770 (Novartis, 2019).
